Results taken from US20160177395A1, “BIOMARKERS FOR THE PREDICTION OF RENAL INJURY” (priority 2007, published 2016).
Where “and” joins values, the source holds several entries; their conditions need not be identical. Identical values can stand only once.

Legend:
[1] = tested on: kidney; assay: Renal histopathology of rats treated with T1, T2, T3; type: in vivo, rat; settings: rat, in vivo
Procedure: Each group consisted of 6 male and 6 female rats. The additional groups consisted of 6 males and 6 female rats treated with control compound for a single day and for five days, as described in Table 24.
T2 “no observed effect level” (NOEL, i.e., the maximal dose at which no toxic effect is visible) is 15 mg/kg.
At autopsy, both kidneys of each animal were removed and each kidney was cross sectioned. Half of each kidney was sent to RNA extraction and analysis.

[2] = tested on: kidney tissues of treated or untreated rats; assay: Real-time qRT-PCR of signature amplicons, validation stage, labeled and un-labeled samples (Table 23); settings: for H31883_DB71_seg13 normalized qRT-PCR result / MUSCYCG1R_DB81_seg19-20 normalized qRT-PCR result / W41270_DB81_seg11 normalized qRT-PCR result: un-labeled sample, one line per animal; for AI045075_DB71_seg6 normalized qRT-PCR expression (Interferon stimulated exonuclease 20 (ISG20) transcript) / H31883_DB71_seg13 normalized qRT-PCR expression (Cyclin-G1 (CCNG1) transcript) / MUSCYCG1R_DB81_seg19-20 normalized qRT-PCR expression / W41270_DB81_seg11 normalized qRT-PCR expression (tumor necrosis factor receptor superfamily, member 12a transcript) / W64472_DB81_seg2 normalized qRT-PCR expression (Interferon stimulated exonuclease 20 (ISG20) transcript) / W83813_DB81_seg27 normalized qRT-PCR expression: un-labeled samples, kidney of individual male/female rats
Source text: New primers were designed for part of the transcripts, and new conditions for several qRT-PCR reactions were used, as described below.
The measurements were normalized in two steps. First—according to the house-keeping-genes normalization factor, and second—each plate was normalized according to ratio of the intensity measurements from samples appearing in it and in the shuffled (normalization) plate (Table 25 provides the plates details and the section “Inter-Plate Normalization” provides details of the normalization process). The normalized values were further scaled by a factor, for ease of viewing.
RT was prepared and qRT-PCR performed and analyzed as described hereinabove. qRT-PCR was performed for the four genes comprising the signature of the discovery stage described in Table 13. Two amplicons were tested for each gene—one representing the wild-type transcript, and another representing an alternative splice variant. Each amplicon was measured using the labeled samples described in Table 9 herein, as well as the un-labeled samples. Samples from both groups (labeled and un-labeled) were tested in seven 96 well plates as described in Table 25. In order to correct possible run to run variations, the following controls were added: 1. several samples were repeated in all 96 wells plates; 2. control shuffled plate was designed which combined samples from all seven test plates.
To account for possible differences of qRT-PCR measurements between the different plates due to experimental artifacts, a normalization plate was planned. This plate, designated hereinabove ‘shuffled plate’, contained samples from all other plates. Real Time PCR was performed on this plate using the primers appropriate for all candidates in tables 26 and 27. For each other plate (plates 1-7 above) and each amplicon, the samples appearing also in the shuffled plate were examined—the ratio between the transcript abundance as measured in the plate to the abundance as measured in the shuffled plate was calculated, outliers were manually removed, and the geometric mean of the left ratios was taken as an additional multiplicative normalization factor for the plate and amplicon.

[3] = Ds1, Day1, oral gavage, female rat kidney
[4] = Ds1, Day1, oral gavage, male rat kidney
[5] = Ds1, Day5, oral gavage, female rat kidney
[6] = Ds1, Day5, oral gavage, male rat kidney
[7] = Ds2, Day1, oral gavage, female rat kidney
[8] = Ds2, Day1, oral gavage, male rat kidney
[9] = Ds2, Day5, oral gavage, female rat kidney
[10] = Ds2, Day5, oral gavage, male rat kidney

H31883_DB71_seg13 normalized qRT-PCR result [2, 3]: 0.394 and 0.356 and 0.205
MUSCYCG1R_DB81_seg19-20 normalized qRT-PCR result [2, 3]: 0.85 and 1.252 and 0.37
W41270_DB81_seg11 normalized qRT-PCR result [2, 3]: 0.859 and 1.064 and 0.507
H31883_DB71_seg13 normalized qRT-PCR result [2, 4]: 0.898 and 0.512 and 0.989 and 0.789
MUSCYCG1R_DB81_seg19-20 normalized qRT-PCR result [2, 4]: 0.918 and 0.845 and 1.025 and 0.713
W41270_DB81_seg11 normalized qRT-PCR result [2, 4]: 0.567 and 1.106 and 1.844 and 0.808
H31883_DB71_seg13 normalized qRT-PCR result [2, 5]: 0.701 and 1.155 and 0.791 and 1.096
MUSCYCG1R_DB81_seg19-20 normalized qRT-PCR result [2, 5]: 0.501 and 0.727 and 0.928 and 1.021
W41270_DB81_seg11 normalized qRT-PCR result [2, 5]: 0.479 and 0.546 and 0.601 and 0.677
H31883_DB71_seg13 normalized qRT-PCR result [2, 6]: 1.054 and 0.818 and 0.72
MUSCYCG1R_DB81_seg19-20 normalized qRT-PCR result [2, 6]: 1.285 and 1.133 and 1.175
W41270_DB81_seg11 normalized qRT-PCR result [2, 6]: 0.88 and 0.8 and 0.499
H31883_DB71_seg13 normalized qRT-PCR result [2, 7]: 0.874 and 0.929 and 1.454
MUSCYCG1R_DB81_seg19-20 normalized qRT-PCR result [2, 7]: 1.132 and 1.211 and 0.575
W41270_DB81_seg11 normalized qRT-PCR result [2, 7]: 0.847 and 1.043 and 1.227
H31883_DB71_seg13 normalized qRT-PCR result [2, 8]: 0.276 and 0.164 and 0.218 and 0.211
MUSCYCG1R_DB81_seg19-20 normalized qRT-PCR result [2, 8]: 1.479 and 0.566 and 1.063 and 1.117
W41270_DB81_seg11 normalized qRT-PCR result [2, 8]: 2.291 and 1.042 and 1.597 and 1.35
H31883_DB71_seg13 normalized qRT-PCR result [2, 9]: 0.81 and 0.711 and 1.599 and 1.018
MUSCYCG1R_DB81_seg19-20 normalized qRT-PCR result [2, 9]: 0.666 and 0.977 and 1.436 and 0.58
W41270_DB81_seg11 normalized qRT-PCR result [2, 9]: 0.587 and 0.623 and 1.24 and 0.704
H31883_DB71_seg13 normalized qRT-PCR result [2, 10]: 1.103 and 0.911
MUSCYCG1R_DB81_seg19-20 normalized qRT-PCR result [2, 10]: 0.765 and 1.037
W41270_DB81_seg11 normalized qRT-PCR result [2, 10]: 0.494 and 3.181
AI045075_DB71_seg6 normalized qRT-PCR expression (Interferon stimulated exonuclease 20 (ISG20) transcript) ([2]; dose Ds1, Day1, oral gavage): 0.354 and 1.103 and 0.678 and 0.596
W64472_DB81_seg2 normalized qRT-PCR expression (Interferon stimulated exonuclease 20 (ISG20) transcript) ([2]; dose Ds1, Day1, oral gavage): 0.483 and 1.31 and 1.296 and 0.52
W83813_DB81_seg27 normalized qRT-PCR expression ([2]; dose Ds1, Day1, oral gavage): 0.322 and 0.663 and 0.497 and 0.402
AI045075_DB71_seg6 normalized qRT-PCR expression (Interferon stimulated exonuclease 20 (ISG20) transcript) ([2]; dose Ds1, Day5, oral gavage): 0.615 and 1.082 and 1.102 and 1.032
W64472_DB81_seg2 normalized qRT-PCR expression (Interferon stimulated exonuclease 20 (ISG20) transcript) ([2]; dose Ds1, Day5, oral gavage): 0.852 and 1.176 and 1.034 and 0.822
W83813_DB81_seg27 normalized qRT-PCR expression ([2]; dose Ds1, Day5, oral gavage): 0.754 and 1.146 and 1.388 and 0.659
AI045075_DB71_seg6 normalized qRT-PCR expression (Interferon stimulated exonuclease 20 (ISG20) transcript) ([2]; dose Ds2, Day1, oral gavage): 0.444 and 1.146 and 0.527
W64472_DB81_seg2 normalized qRT-PCR expression (Interferon stimulated exonuclease 20 (ISG20) transcript) ([2]; dose Ds2, Day1, oral gavage): 0.659 and 1.566 and 0.602
W83813_DB81_seg27 normalized qRT-PCR expression ([2]; dose Ds2, Day1, oral gavage): 0.67 and 0.137 and 0.761
AI045075_DB71_seg6 normalized qRT-PCR expression (Interferon stimulated exonuclease 20 (ISG20) transcript) ([2]; dose Ds2, Day5, oral gavage): 0.37 and 1.451 and 0.53
W64472_DB81_seg2 normalized qRT-PCR expression (Interferon stimulated exonuclease 20 (ISG20) transcript) ([2]; dose Ds2, Day5, oral gavage): 0.368 and 0.779 and 0.656
W83813_DB81_seg27 normalized qRT-PCR expression ([2]; dose Ds2, Day5, oral gavage): 0.729 and 0.728 and 0.933
SMILES: Nc1nc2ccc(OC(F)(F)F)cc2s1 [T3, 6-(trifluoromethoxy)benzothiazol-2-amine]
Renal damage [1]: no renal damage after up to 35 days of treatment
H31883_DB71_seg13 normalized qRT-PCR expression (Cyclin-G1 (CCNG1) transcript) ([2]; dose Ds1, Day1, oral gavage): 0.919 and 0.764 and 0.611 and 0.663 and 0.569 and 1.366 and 0.637 and 0.949 and 0.7 and 0.582 and 1.074
MUSCYCG1R_DB81_seg19-20 normalized qRT-PCR expression ([2]; dose Ds1, Day1, oral gavage): 0.96 and 0.232 and 0.183 and 1.044 and 1.137 and 0.132 and 0.134 and 0.767 and 0.441 and 0.114 and 0.726
W41270_DB81_seg11 normalized qRT-PCR expression (tumor necrosis factor receptor superfamily, member 12a transcript) ([2]; dose Ds1, Day1, oral gavage): 0.64 and 0.457 and 0.575 and 0.374 and 0.468 and 0.465 and 0.344 and 0.568 and 0.551 and 0.282 and 0.649
H31883_DB71_seg13 normalized qRT-PCR expression (Cyclin-G1 (CCNG1) transcript) ([2]; dose Ds1, Day5, oral gavage): 1.65 and 1.003 and 1.338 and 0.576 and 1.082 and 1.358 and 1.585 and 0.946 and 1.094 and 1.3 and 1.301
MUSCYCG1R_DB81_seg19-20 normalized qRT-PCR expression ([2]; dose Ds1, Day5, oral gavage): 0.649 and 0.716 and 1.035 and 1.226 and 0.857 and 0.625 and 0.525 and 0.398 and 1.413 and 0.62 and 0.638
W41270_DB81_seg11 normalized qRT-PCR expression (tumor necrosis factor receptor superfamily, member 12a transcript) ([2]; dose Ds1, Day5, oral gavage): 0.722 and 1.807 and 0.483 and 0.899 and 0.832 and 1.015 and 0.699 and 0.495 and 1.093 and 0.482 and 1.957
H31883_DB71_seg13 normalized qRT-PCR expression (Cyclin-G1 (CCNG1) transcript) ([2]; dose Ds2, Day1, oral gavage): 0.802 and 0.969 and 0.632 and 1.119 and 0.923 and 0.767 and 1.13 and 1.47 and 0.662 and 0.643
MUSCYCG1R_DB81_seg19-20 normalized qRT-PCR expression ([2]; dose Ds2, Day1, oral gavage): 0.92 and 0.203 and 0.275 and 2.153 and 0.29 and 0.152 and 1.45 and 2.313 and 0.798 and 0.158
W41270_DB81_seg11 normalized qRT-PCR expression (tumor necrosis factor receptor superfamily, member 12a transcript) ([2]; dose Ds2, Day1, oral gavage): 0.49 and 0.347 and 0.174 and 0.912 and 0.418 and 0.359 (2×) and 0.667 and 0.956 and 0.897
H31883_DB71_seg13 normalized qRT-PCR expression (Cyclin-G1 (CCNG1) transcript) ([2]; dose Ds2, Day5, oral gavage): 0.942 and 0.718 and 1.058 and 1.087 and 2.34 and 1.259 and 0.705 and 0.846 and 0.949
MUSCYCG1R_DB81_seg19-20 normalized qRT-PCR expression ([2]; dose Ds2, Day5, oral gavage): 1.567 and 0.875 and 1.708 and 1.024 and 1.119 and 1.475 and 1.004 and 0.658 and 1.003
W41270_DB81_seg11 normalized qRT-PCR expression (tumor necrosis factor receptor superfamily, member 12a transcript) ([2]; dose Ds2, Day5, oral gavage): 0.762 and 1.066 and 1.119 and 0.472 and 0.766 and 0.944 and 0.363 and 0.605 and 0.43
